Assay results reported in US20260232706A1, “1H-PYRAZOLE ANALOGUES AND METHODS AND USES THEREOF” (University of Manitoba, priority 2022, published 2026).
Values joined by “and” are separate entries in the source; they are usually repeats but may differ in a detail not shown here. Equal entries are not always repeated. “Also recorded” adds a separate entry of the source.

How the values were obtained:
[1] = test system: neuroblastoma-spinal cord hybrid NSC-34 cells; experiment: Neuroprotective effect/cell viability analysis in NSC-34 cells against H2O2 induced oxidative stress; format: cell-based; details: 250 μM H2O2
Method: Methods: The in vitro properties and antioxidant abilities of the synthesized B^5-EDR analogues were assessed in cell-based assays. […] The methodology employed for each of these assays is detailed below.
(iii) Methodology for neuroprotective effect/cell viability analysis in (NSC-34) cells (FIGS. 8A-B): Briefly, NSC-34 cells with about 20 k cells per well in 96 well plates were cultured in a complete medium consisting of high glucose Dulbecco's modified eagle medium (DMEM) (Thermo Fisher Scientific) supplemented with about 10% US-origin fetal bovine serum (Thermo Fisher Scientific), GlutaMAX-1, about 200 mM (100×) (Thermo Fisher Scientific), about 1% 100 mM Sodium pyruvate and about 1% 10,000 U/mL penicillin-streptomycin solution (Thermo Fisher Scientific) for about 20 h to reach confluency of about 70%—about 75%. All the cells were cultured in an incubator with about 5% of CO2 at about 37° C. About 20 kcells/100 μl/well were seeded in 96 well plates for about 20 h in triplicates. […] After about 1 h, the cells were treated with 250 μM of H2O2 for about 2 h. After a total period of about 3 h, about 10 μl of WST-8 reagent was added in each well and the absorbance readings were recorded after about 2.5 h at about 450 nm. All the experiments were repeated at least three times and measurements were run in triplicates.

[2] = test system: SOD1-G37R mouse model of ALS, Het G37R (Line 42) mice; experiment: Therapeutic efficacy in the SOD1-G37R mouse model of ALS; format: in vivo
Method: Methods: B^5-EDR analogues were synthesized as described in Example 1. The specific methodology employed for this Example is described below. All the statistical analyses were carried out by using GraphPad Prism […] software (version 9.5.1 (733)), (GraphPad Software, La Jolla, CA). Statistical significance was performed using a two-tailed unpaired t-test used for body weight assessment, disease onset, survival, and weight loss comparisons. Kaplan-Meier survival analysis and log rank test was also used for survival analysis. For these in vivo studies, disease onset or symptom onset was defined by two criteria. The first criteria is defined by the loss of 10% body weight based on the highest recorded weight during the age of the mice after pre symptom onset treatment study. The loss of 10% body weight is often accompanied by appearance of symptoms of muscle weakness and the second criteria of disease onset, which is retrospectively defined as the age at which the mouse reaches peak weight. Mice were assessed and monitored daily by trained staff for weight and muscle weakness starting at 90 days of age i.e., well before clinical onset of disease. According to the common consensus among ALS scientific community, the disease onset is defined as a time when mice have reached their peak body weight well before the denervation induced muscle atrophy and weight loss.
Transgenic mice carrying human G37R mutant SOD1 [B6.Cg Tg(SOD1*G37R)42Dpr/J] were obtained from the Jackson Laboratory (Bar Harbor, ME, USA). These mice were crossed with female mice with a C57BL/6 background for at least four generations. Colonies are maintained in the Central Animal Care Services (CACS), University of Manitoba. The mice were used in accordance with the Guide of Care and Use of Experimental Animals of the Canadian Council on Animal Care. Transgenic offspring were genotyped by PCR of DNA obtained from ear biopsies, see (ia) below, using a protocol provided by the Jackson Laboratory.
For these experiments, a set of experiments was carried out having two groups of mice: • Group 1: Sham treatment (1:20 DMSO/PBS); and • Group 2: NS-1-2 treatment (1:20 DMSO/PBS) (10 mg/kg body weight/day). For these experiments, age matched Het G37R (Line 42) mice were administered vehicle (1:20, DMSO:PBS) or treatment (NS-1-2; 10 mg/kg bodyweight), daily, starting at the age of 90 days until the age of 210 days, and monitored daily for several significant humane point indicators including, a) Mouse unable to right itself in 15 sec b) 25% loss of weight on the highest recorded weight c) Full paralysis of one or more hind limbs d) Loss of bladder functions e) Crusty eyes/loss of vision and/or f) Penile prolapse.
For weight loss experiments, weight loss was based on highest recorded weight (humane end point).
For disease onset experiments, symptom onset was assessed (i.e. loss of 10% body weight based on the highest recorded weight with muscle weakness and time to peak body weight (days), was assessed and monitored daily by trained staff starting at 90 days of age i.e., well before pre-symptom onset of disease also, monitored daily for several significant humane point indicators including a) Mouse unable to right itself in 15 sec b) 25% loss of weight on the highest recorded weight c) Full paralysis of one or more hind limbs d) Loss of bladder functions e) Crusty eyes/loss of vision f) Penile prolapse. One tailed (unpaired t test) was performed to analyse age to reach (10%) loss of body weight.

[3] = individual animals, NS-1-2 treatment (N = 10)

With `Cc1cc(B2OC(C)(C)C(C)(C)O2)n(-c2ccccc2)n1` [NS-1-2, 3-methyl-5-(4,4,5,5-tetramethyl-1,3,2-dioxaborolan-2-yl)-1-phenyl1H-pyrazole] the “neuroprotection in scavenging neurotoxic effects of H2O2 compared to EDR” value ([1]; 1 μM) was “better neuroprotection”, the “neuroprotection in scavenging neurotoxic effects of H2O2 compared to EDR” value ([1]; 25 μM) was “better neuroprotection” and the “viability compared to EDR” value ([1]; 50 μM dose) was “almost equal viability”. For the same compound, the “prolongation of survival age or life span versus control (Kaplan-Meier)” value ([2]; 10 mg/kg/day IP from age 90 to 210 days) was 14.5 days, the “mean age of survival (humane end point)” value ([2]; 10 mg/kg/day IP from age 90 to 210 days, n=10, FIG. 14) was 196.7 days and the “median survival (Kaplan-Meier)” value ([2]; 10 mg/kg/day IP from age 90 to 210 days, n=10, FIG. 15) was 199.5 days. The “delay of disease onset versus control (Kaplan-Meier)” value ([2]; age to reach peak body weight) was 20 days, the “percentage mean weight loss (humane end point)” value ([2]; based on highest recorded weight, n=10, FIG. 16) was 17.55% and the “Age to reach 10% loss of body weight based on highest recorded weight with muscle weakness” value [2, 3] was 199 days and 171 days and 184 days and 180 days and 193 days and 195 days (2×) and 203 days and 196 days and 165 days. For the same compound, the “Disease Onset: Age to reach peak body weight” value [2, 3] was 143 days (2×) and 156 days and 147 days and 154 days and 164 days and 163 days and 188 days and 148 days and 144 days, the “Treatment G37R (Survival Days) (Humane End Point)” value [2, 3] was 201 Days (2×) and 205 Days and 189 Days and 195 Days and 198 Days and 203 Days and 197 Days and 204 Days and 174 Days and the “25% Loss of Weight Based on Highest Recorded Weight (Humane End Point)” value ([2]; individual animals, above or below the 25% criterion) was “Weight Loss <25%”. The “Weight Loss (%)” value ([2]; individual animals, humane end point, based on highest recorded weight) was “Weight Loss (%): 17.056; also recorded: Weight Loss (%): 18.91; also recorded: Weight Loss (%): 19.67; also recorded: Weight Loss (%): 20; also recorded: Weight Loss (%): 15.68; also recorded: Weight Loss (%): 18.543; also recorded: Weight Loss (%): 10.122; also recorded: Weight Loss (%): 13.66; also recorded: Weight Loss (%): 18.548; also recorded: Weight Loss (%): 23.34”, the “difference in survival versus control” value ([2]; mean, 10 mg/kg/day IP from age 90 to 210 days) was 13.3 days and the “delay of disease onset versus control (10% weight loss)” value ([2]; mouse, in vivo) was “around 23.2 days”. For the same compound, the “delay of disease onset versus control (time to peak body weight, mean)” value ([2]; mouse, in vivo) was “around 23.6 days”, the “disease onset: mean age (loss of 10% body weight with muscle weakness)” value ([2]; n=10, FIG. 17) was 188.1 days and the “disease onset: mean age (time to peak body weight)” value ([2]; n=10, FIG. 18) was 155 days. For the same compound, the “median age to reach peak body weight (Kaplan-Meier, printed as median survival)” value ([2]; n=10, FIG. 19) was 151 days.
